How the values were obtained:
[1] = Blood glucose after an oral glucose tolerance test in fasted male mice (FIG. 3C); assay type: in vivo; conditions: single dose
Experimental: (§1) (One-way ANOVA with Dunnett's test vs. vehicle; *=p<0.01; **=p<0.0001). From left to right along x-axis in FIG. 3B: vehicle, 30 mg/kg BBO, 100 mg/kg BBO, 300 mg/kg BBO, 50 mg/kg alpelisib. […] (One-way ANOVA with Tukey's multiple comparisons test vs all other groups: *p<0.0001) (IV=intravenous administration; PO=per os or oral administration; ng/mL=nanograms per milliliters; mg/kg=milligrams per kilogram; mg/dL=milligrams per deciliter; min=minutes; CDX=cell line derived xenograft; QD=quaque die or once daily, PK=pharmacokinetics)

[2] = Insulin levels in fed male mice (FIG. 3D); assay type: in vivo; conditions: single oral dose 50 mg/kg, 240 minutes after administration
Experimental: as §1

[3] = system: pAKT in BT474 cells; test: Cell-based pAKT HTRF assay in BT474 cells; conditions: Homo sapiens, BT-474; BT474 cell line; read-out: pAKT (IC50)
Outline: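 Cells grown in DMEM with 10% FBS were exposed to compounds for 4 hr in 0.25% DMSO, using a 9-point, 3-fold dilution series that starts at 3 μM. Lysates were incubated with d2 and Eu Cryptate antibodies for 4–24 h at room temperature, and HTRF was read at 615 nm emission.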

[4] = system: BT474 cell line; test: Cell viability in BT474 cell line; assay type: cell-based; conditions: Homo sapiens, BT-474
Source text: Table 8 compares the pAKT IC50 and cell viability for Compound 58, a PI3Kα breaker, and the PI3Kα inhibitor alpelisib in the breast cancer estrogen receptor positive (ER+) BT474 cell line, which harbors a HER2 amplification and PIK3CA linker domain K111N mutation. […] Importantly, the potency on pAKT translates well into a loss in cellular viability.

[5] = system: pAKT (Ser473) in BT474 CDX tumors; test: Pharmacodynamic activity (tumor pAKT) in BT474 cell line-derived xenograft model; assay type: in vivo, mice; conditions: NOD/SCID mice, 4 hours after one oral dose of 50 mg/kg
Experimental: An in vivo study was conducted to evaluate the pharmacodynamic activity of Compound 58 in the breast cancer estrogen receptor positive (ER+) BT474 cell line-derived xenograft (CDX) model, which harbors a HER2 amplification and PIK3CA linker domain K111N mutation (FIG. 3B). NOD/SCID mice were implanted subcutaneously with BT474 human tumor cells and were injected subcutaneously with estradiol benzoate twice a week to support tumor growth. When tumors reached a mean size of 286 mm^3, mice were randomized into treatment groups (4 mice per group) and administered one oral dose of vehicle, 30 mg/kg Compound 58, 100 mg/kg Compound 58, 300 mg/kg Compound 58, or 50 mg/kg alpelisib. Alpelisib is a PI3Kα kinase domain inhibitor and was included as a positive control. Whole blood and tumors were collected 4 hours post the dose. Blood was processed to plasma and compound concentrations were determined with LC-MS/MS. Tumors were processed into lysates and pAKT levels were measured using the Meso Scale Diagnostics (MSD) multi-spot pAKT (Ser473)/total AKT assay whole cell lysate kit.

[6] = Oral glucose tolerance test in fasted mice; assay type: in vivo; conditions: fasted male C57/BL6J mice, one oral dose 50 mg/kg, 2 g/kg glucose 1 h later, 15-120 minutes
Experimental: Two in vivo studies were performed to determine whether Compound 58 administration induces hyperglycemia and hyperinsulinemia in mice like the PI3Kα kinase domain inhibitor alpelisib (FIGS. 3C and 3D). In the first study, an oral glucose tolerance test was performed in fasted mice following the administration of compounds to determine if Compound 58 induces hyperglycemia (FIG. 3C). Male C57/BL6J mice were fasted overnight for 16 hours and approximately 5 μL of whole blood was collected via tail snip to measure fasted blood glucose levels using a glucometer. Mice were randomized into three groups (8 mice per group) based on blood glucose levels and then administered one oral dose of vehicle, 50 mg/kg alpelisib, or 300 mg/kg Compound 58. One hour later, blood was collected for a glucose measurement and then a single oral dose of a 2 g/kg glucose solution was administered. Blood glucose measurements were performed at 15, 30, 60, 90, and 120 minutes after the administration of the glucose solution.

[7] = Serum insulin levels in fed mice; assay type: in vivo; conditions: fed male C57/BL6J mice, 240 minutes after one oral dose 50 mg/kg
Experimental: In the second study, serum insulin levels were measured in fed mice following administration of compounds to determine if Compound 58 induces hyperinsulinemia like the PI3Kα kinase domain inhibitor alpelisib (FIG. 3D). Approximately 5 μL of whole blood was collected via tail snip from male C57/BL6J mice and used to measure fed blood glucose levels using a glucometer. Mice were randomized into three groups (8 mice per group) based on blood glucose levels and then administered one oral dose of vehicle, 50 mg/kg alpelisib, or 300 mg/kg Compound 58. 240 minutes later, whole blood was collected and processed to serum and insulin levels were measured using an ELISA.

[8] = Phase III clinical trial; cited from earlier work

SMILES: Cc1nc(NC(=O)N2CCC[C@H]2C(N)=O)sc1-c1ccnc(C(C)(C)C(F)(F)F)c1 [alpelisib, reference compound]
- blood glucose levels (hyperglycemia) [1]: Hyperglycemia is observed
- insulin levels (hyperinsulinemia) [2]: Hyperinsulinemia is observed
- IC50 [3]: 169 nM
- IC50 [4]: 744 nM
- pAKT inhibited [5]: 97%
- Blood glucose levels after glucose dose (oral glucose tolerance test) [6]: significantly elevated
- Serum insulin levels [7]: significantly elevated
- patients in whom hyperglycemia was observed [8]: 65%

— patent US20250230138A1, “COMPOUNDS HAVING A T-STRUCTURE FORMED BY AT LEAST FOUR CYCLES FOR USE IN THE TREATMENT OF CANCER AND OTHER INDICATIONS” (TheRas, Inc., priority 2022, published 2025)
